Measurements published in PMC4519322 (PLoS Pathogens, 2015).
Read-outs that look alike come from different tables or passages of the source.

Columns and labels:
in vitro = conditions: dog, CC50 (50% cytotoxicity concentration), MDCK cells, WST-1 assay
A/WSN/1933 (H1N1) virus = experiment: microbe, parasite or virus in culture; format: cell-based, influenza A virus; conditions: for IC50 / IC90: Influenza A virus
[1] = in vivo; cited from earlier work
[2] = system: recombinant wild-type WSN (rWSN); experiment: microbe, parasite or virus in culture; format: cell-based; conditions: Influenza A virus, H1N1 / WSN, read-out: IC50 (μM) WT rWSM (H1N1)
[3] = system: A/Astrakhan/263/1982 (H14N15); experiment: microbe, parasite or virus in culture; format: cell-based; conditions: Influenza A virus, MDCK
[4] = system: A/Ck/yamaguchi/7/2004 (H5N1); experiment: microbe, parasite or virus in culture; format: cell-based; conditions: Influenza A virus, H5N1, MDCK
CRM1 binding to NP = CRM1 binding to NP (Influenza A virus, UniProt P15682); format: biochemical
Chain of CRM1 binding to NP (P15682 whole entry, looked up): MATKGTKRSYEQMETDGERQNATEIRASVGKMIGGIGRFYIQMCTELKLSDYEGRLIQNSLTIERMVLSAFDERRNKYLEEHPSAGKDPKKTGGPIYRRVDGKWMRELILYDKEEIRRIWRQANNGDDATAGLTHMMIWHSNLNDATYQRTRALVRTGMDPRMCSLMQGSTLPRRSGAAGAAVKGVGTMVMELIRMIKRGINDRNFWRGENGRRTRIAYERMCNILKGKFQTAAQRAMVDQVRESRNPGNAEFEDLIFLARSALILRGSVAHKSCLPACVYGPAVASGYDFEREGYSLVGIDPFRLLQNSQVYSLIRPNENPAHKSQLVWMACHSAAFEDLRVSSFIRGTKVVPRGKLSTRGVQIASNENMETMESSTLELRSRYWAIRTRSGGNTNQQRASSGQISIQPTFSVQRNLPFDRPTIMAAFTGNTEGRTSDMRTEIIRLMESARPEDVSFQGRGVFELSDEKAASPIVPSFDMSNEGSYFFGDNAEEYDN

A/Anhui/1/2013(H7N9) = experiment: microbe, parasite or virus in culture; format: cell-based; conditions: Influenza A virus, H7N9, MDCK
NP-Flag = NP-Flag (Influenza A virus, UniProt P15682); format: binding
Chain of NP-Flag (P15682 whole entry, looked up): as above

NP-NP interaction = NP-NP interaction (Influenza A virus, UniProt P15682); format: biochemical
Chain of NP-NP interaction (P15682 whole entry, looked up): as above

A/Udorn/307/1972 (H3N2) = experiment: microbe, parasite or virus in culture; format: cell-based; conditions: Influenza A virus, H3N2, MDCK
[5] = system: A/Alberta/60/1976 (H12N5); experiment: microbe, parasite or virus in culture; format: cell-based; conditions: Influenza A virus, MDCK
[6] = system: A/Massachusetts/3740/1965 (H6N2); experiment: microbe, parasite or virus in culture; format: cell-based; conditions: Influenza A virus, H6N2, MDCK
[7] = system: influenza A/WSN/1933 (H1N1) virus; design: species or system Balb/c mice; conditions: mouse, in vivo
A/England/1/1956 (H11N6) = experiment: microbe, parasite or virus in culture; format: cell-based; conditions: Influenza A virus, MDCK
A/Tex/131 (H3N2) = experiment: microbe, parasite or virus in culture; format: cell-based; conditions: Influenza A virus, H3N2, MDCK
vRNP activity = vRNP activity (Influenza A virus, UniProt P15682); format: cell-based, influenza A/WSN/1933 (H1N1)
Chain of vRNP activity (P15682 whole entry, looked up): as above

viral protein expression = format: cell-based
[8] = target: vRNA-induced NP oligomerization (Influenza A virus, UniProt P15682); format: biochemical
Chain of vRNA-induced NP oligomerization (P15682 whole entry, looked up): as above

[9] = system: A/California/7/2009 virus (H1N1); experiment: microbe, parasite or virus in culture; format: cell-based; conditions: Influenza A virus, H1N1, MDCK
[10] = system: Influenza A/WSN/1933 (H1N1) virus; format: cell-based
[11] = system: nuclear export of NP-mRFP-Flag; experiment: in vitro nuclear export assay, digitonin-permeabilized HeLa cells; format: cell-based; conditions: with HeLa cell lysate, 42% with lysate alone
Description: HeLa cells were attached to glass cover slips at 37°C for 24 h and then transiently transfected with NP-mRFP-Flag/pCAGGS. After 48 h, cells were washed twice with cold transport buffer (20 mM HEPES (pH 7.4), 110 mM potassium acetate, 2 mM magnesium acetate, 1 mM EGTA (pH 7.4), 2 mM DTT, 1 μg/mL aprotinin, 1 μg/mL leupeptin, and 1 μg/mL pepstatin) and permeabilized with digitonin (50 μg/mL; Sigma) in transport buffer for 5 min on ice. The cells were then washed with cold transport buffer and incubated with apyrase (10 U/mL; Sigma) for 5 min on ice. After washing twice with cold transport buffer, the cells were incubated in cold transport buffer for 10 min on ice before addition of a the reaction mixture (40 μg HeLa cell lysate, 10 mg/mL bovine serum albumin (BSA), 10 mM ATP, 5 mM creatine phosphate, 0.64 U creatine kinase) containing (or not) the test compounds. The mixture was the incubated at 30°C for 1 h. After washing three times with cold transport buffer, mRFP fluorescence was observed under a confocal laser scanning microscope (FV 1000; Olympus). The fluorescence intensity in the nuclei was analyzed with MetaMorph software (Molecular Devices Inc., Downingtown, PA). The fluorescence intensity of NP-mRFP-Flag was quantified in >100 nuclei in each of three independent experiments.

NP-RNA interaction = NP-RNA interaction (Influenza A virus, UniProt P15682); format: biochemical
Chain of NP-RNA interaction (P15682 whole entry, looked up): as above

[12] = system: A/Ontario/6118/1968 (H8N4); experiment: microbe, parasite or virus in culture; format: cell-based; conditions: Influenza A virus, H8N4, MDCK
[13] = mouse plasma
A/Germany/N/1949 (H10N7) = experiment: microbe, parasite or virus in culture; format: cell-based; conditions: Influenza A virus, MDCK
[14] = system: vRNA encoding the PB2 subunit; format: cell-based, A/WSN/1933 (H1N1)
in vivo = conditions: Balb/c, mouse, 10 mg/kg
[15] = system: virus life cycle in MDCK cells; format: cell-based
NP = NP (Influenza A virus, UniProt P15682); format: cell-based, A/WSN/1933 (H1N1)
Chain of NP (P15682 whole entry, looked up): as above

[16] = MDCK, read-out: IC50 (SAR analysis of RK424)

NC(=O)c1cc(-c2ccc(-c3ccccc3)cc2)nc2ccccc12 [Analog #1]
CC50 (in vitro): > 10000 nM | antiviral effect relative to RK424 (SAR, in words) (A/WSN/1933 (H1N1) virus): partial reduction in the antiviral effect | IC50 (A/WSN/1933 (H1N1) virus; [16]): 10100 ± 2070 nM

O=C(O)c1cc(N2CCN(c3ccccc3)CC2)nc2ccccc12 [Analog #2]
CC50 (in vitro): > 10000 nM | antiviral effect relative to RK424 (SAR, in words) (A/WSN/1933 (H1N1) virus): complete loss of antiviral activity | IC50 (A/WSN/1933 (H1N1) virus; [16]): > 30000 nM

O=C(O)c1ccnc(-c2ccc(-c3ccccc3)cc2)c1 [Analog #3]
CC50 (in vitro): > 10000 nM | antiviral effect relative to RK424 (SAR, in words) (A/WSN/1933 (H1N1) virus): complete loss of antiviral activity | IC50 (A/WSN/1933 (H1N1) virus; [16]): > 30000 nM

O=C(O)c1cc(-c2ccc(Oc3ccccc3)cc2)nc2ccccc12 [Analog #4]
CC50 (in vitro): > 10000 nM | antiviral effect relative to RK424 (SAR, in words) (A/WSN/1933 (H1N1) virus): antiviral effect comparable with that of RK424 | IC50 (A/WSN/1933 (H1N1) virus; [16]): 430 ± 150 nM

NC(=O)c1nc(F)c[nH]c1=O [Analog T-705, favipiravir]
recovery from morbidity, of that of the negative control group [1]: 20% | viral titers in the lung [1]: 3.50 log10 PFU/mL

Cc1onc(-c2ccccc2)c1C(=O)N1CCN(c2ccc([N+](=O)[O-])cc2Cl)CC1 [Nucleozin, nucleozin, reference compound]
IC50 [2]: 0.2 ± 0.03 µM

O=C(O)c1cc(-c2ccc(-c3ccccc3)cc2)nc2ccccc12 [RK424]
IC50 [3]: 420 ± 60 nM | IC90 [3]: 950 ± 10 nM | IC50 [4]: 570 ± 40 nM | IC90 [4]: 930 ± 20 nM | binding of CRM1 to NP-Flag beads (CRM1 binding to NP): binding was inhibited | IC50 [2]: 0.38 ± 0.04 µM | IC50 (A/Anhui/1/2013(H7N9)): 600 ± 120 nM | IC90 (A/Anhui/1/2013(H7N9)): 1140 ± 260 nM | binding of wild-type NP-Flag to RK424 beads (NP-Flag): bound to RK424 beads but not to control beads | CC50 (in vitro): ≥ 50000 nM | binding of NP-HA to NP-mRFP-Flag beads (NP-NP interaction): inhibited the binding of NP-HA to NP-mRFP-Flag beads in a dose-dependent manner | IC50 (A/Udorn/307/1972 (H3N2)): 490 ± 190 nM | IC90 (A/Udorn/307/1972 (H3N2)): 1230 ± 240 nM | IC50 [5]: 620 ± 230 nM | IC90 [5]: 1510 ± 870 nM | IC50 [6]: 590 ± 90 nM | IC90 [6]: 1590 ± 120 nM | body weight change (in words) [7]: lost less weight | reduction in the virus titer in the lung compared with controls [7]: ~ 2 log | virus titer in the lungs [7]: 2.9×10^3 PFU/mL | IC50 (A/England/1/1956 (H11N6)): 570 ± 160 nM | IC90 (A/England/1/1956 (H11N6)): 940 ± 20 nM | IC50 (A/Tex/131 (H3N2)): 590 ± 130 nM | IC90 (A/Tex/131 (H3N2)): 980 ± 20 nM | luciferase activity (vRNP activity) (vRNP activity): notable and dose-dependent reduction in luciferase activity | viral protein expression (western blotting) (viral protein expression): reduction in viral protein expression | plaque formation (number and size) (A/WSN/1933 (H1N1) virus): reduction in the number, but not the size, of viral plaques | IC50 (A/WSN/1933 (H1N1) virus; MDCK): 480 ± 190 nM | IC90 (A/WSN/1933 (H1N1) virus; MDCK): 1190 ± 360 nM | IC50 (A/WSN/1933 (H1N1) virus; read-out: IC50 expressed as ng/mL): 163 ng/mL | IC90 (A/WSN/1933 (H1N1) virus; read-out: IC90 expressed as ng/mL): 390 ng/mL | rate of NP oligomerization [8]: dose-dependent reduction in the rate of oligomerization | IC50 [9]: 400 ± 70 nM | IC90 [9]: 880 ± 20 nM | effect on viral replication when added prior to virus inoculation [10]: did not interfere with viral replication | Cmax relative to the in vitro IC50 concentration (Cmax 39200 ng/mL vs 162.7 ng/mL): more than 200 times | bioavailability via the oral route relative to the intraperitoneal route, lower by (mice, 10 mg/kg): 50% | free drug maximum concentration (Cfree max) (mice, intravenous 1 mg/kg, plasma): 11.4 ng/mL | free drug maximum concentration (Cfree max) (mice, oral route 10 mg/kg): 46.4 ng/mL | free drug maximum concentration (Cfree max) (mice, context intraperitoneal 10 mg/kg): 156.8 ng/mL | mRFP fluorescence intensity in the nucleus, % of buffer-treated cells ([11]; 2 μM): 76% | mRFP fluorescence intensity in the nucleus, % of buffer-treated cells ([11]; 10 μM): 134% | RNA binding, less than control samples (NP-RNA interaction): ~50% | IC50 [12]: 490 ± 40 nM | IC90 [12]: 910 ± 20 nM | drug free from plasma protein [13]: 0.4% | plasma protein binding ([13]; 50 μM, 37°C 30 min): 99.6% | IC50 (A/Germany/N/1949 (H10N7)): 580 ± 140 nM | IC90 (A/Germany/N/1949 (H10N7)): 1090 ± 80 nM | vRNA expression (FISH) [14]: significant reduction in vRNA expression | Vd (in vivo): 0.583 L/kg | Cmax (in vivo; ip): 39200 ng/mL | antiviral effect by time of addition [15]: prominent antiviral effect at an early stage in the virus life cycle | NP localization in virus-infected HeLa cells (NP): nuclear rather than cytoplasmic localization of NP

CCC(=C/[C@H](C)C/C=C/C(C)=C/[C@@H](C)C(=O)[C@@H](C)[C@H](O)[C@@H](C)C/C(C)=C/C(=O)O)/C=C/[C@@H]1OC(=O)C=C[C@@H]1C [leptomycin B, reference compound]
binding of CRM1 to NP-Flag beads (CRM1 binding to NP): binding was inhibited | mRFP fluorescence intensity in the nucleus, % of buffer-treated cells ([11]; concentration not given): 97%

CCOC(=O)C1=C[C@@H](OC(CC)CC)[C@H](NC(C)=O)[C@@H](N)C1 [oseltamivir phosphate, reference compound]
body weight change (in words) [7]: no weight loss | luciferase activity (vRNP activity) (vRNP activity): did not significantly inhibit luciferase activity | NP localization in virus-infected HeLa cells (NP): NP localized in both the nucleus and cytoplasm
